# Values joined by “and” are separate entries in the source; they are usually repeats but may differ in a detail not shown here. Equal entries are not always repeated.
# Biological target: HIV-1 integrase (Human immunodeficiency virus type 1 group M subtype B, UniProt P04585)
# Test: HIV-1 integrase inhibition assay
# Format: biochemical
# Parameters: HIV-1 Integrase Inhibition, sample reading / HIV-1 Integrase Inhibition, mean: unit not given here
# Conditions: for HIV-1 Integrase Inhibition, sample reading: sample 1, sample 2
# Description: A biochemical integrase assay described by Craigie et at (HIV, vol. 2: A practical Approach) Biochemistry, Molecular Biology and Drug Discovery, Ed. J. Kam 1995) to screen agents for their ability to inhibit HIV-1 integrase. In this system, a kinased oligonucleotide serves as the target of 3′ processing and the subsequent strand transfer reaction. The 3′ processing reaction involves the removal of 2 nucleotides from the 3′ ends of the substrate and this is followed by the strand transfer reaction in which the 3′ ends are joined to the exposed 5′ ends. The 20 μl reaction mixture contains 25 mM MOPS (pH 7.2), […] BSA, 10 mM β-mercaptoethanol, 10% glycerol, 7.5 mM MnCl2, 25 nM (7 ng) substrate (Oligo's Etc., Wilsonville, Oreg.) and 200 nM (128 ng) integrase (NIAID AIDS Research and Reference Reagent Program, Bethesda, Md.). The reaction proceeds at 37° C. for 1-2 hours and is terminated by the addition of 20 μl of sequencing stop solution (JSB Amersham, Arlington Heights, Ill.). The reaction products are visualized by autoradiography following electrophoresis in 15% polyacrylamide 6M Urea gel. The substrate migrates as a 30 mer, the product of 3′ processing migrates as an N-2 band and the strand transfer products migrate more slowly at various sizes larger than the substrate.
smiles,measurement,setting,value
"c1csc(-c2nc3cccnc3[nH]2)c1 [2-(2-thienyl)-imidazolo [4,5-b]pyridine]",EC50,,> 497 µM
same,"HIV-1 Integrase Inhibition, mean",0.1 μg/ml,10577
same,"HIV-1 Integrase Inhibition, sample reading",0.1 μg/ml,11155.2 and 9998.8
same,"HIV-1 Integrase Inhibition, mean",1 μg/ml,10104
same,"HIV-1 Integrase Inhibition, sample reading",1 μg/ml,10640.4 and 9568.4
same,"HIV-1 Integrase Inhibition, mean",10 μg/ml,10580
same,"HIV-1 Integrase Inhibition, sample reading",10 μg/ml,10814.1 and 10345.1
same,"HIV-1 Integrase Inhibition, mean",100 μg/ml,7214
same,"HIV-1 Integrase Inhibition, sample reading",100 μg/ml,7639.4 and 6788.6
